In US12172983B2, “EGFR inhibitors” (Blueprint Medicines Corporation, priority 2019, dated 2024):
Like-named read-outs stand apart in the source and are kept apart here.

Tests used:
[1] = target: T1, EGFR (L858R T790M C797S) (Homo sapiens, UniProt P00533, C797S/L858R/T790M); assay: Biochemical EGFR inhibition assay (Caliper mobility shift), EGFR LRTMCS mutant; conditions: inhibitory activity against EGFR LRTMCS mutant; apparent IC50; read-out: Ext Enz LRTMCS
T1 construct: purchased SignalChem E10-122VG
T1 sequence (P00533 25-1210 T790M/C797S/L858R): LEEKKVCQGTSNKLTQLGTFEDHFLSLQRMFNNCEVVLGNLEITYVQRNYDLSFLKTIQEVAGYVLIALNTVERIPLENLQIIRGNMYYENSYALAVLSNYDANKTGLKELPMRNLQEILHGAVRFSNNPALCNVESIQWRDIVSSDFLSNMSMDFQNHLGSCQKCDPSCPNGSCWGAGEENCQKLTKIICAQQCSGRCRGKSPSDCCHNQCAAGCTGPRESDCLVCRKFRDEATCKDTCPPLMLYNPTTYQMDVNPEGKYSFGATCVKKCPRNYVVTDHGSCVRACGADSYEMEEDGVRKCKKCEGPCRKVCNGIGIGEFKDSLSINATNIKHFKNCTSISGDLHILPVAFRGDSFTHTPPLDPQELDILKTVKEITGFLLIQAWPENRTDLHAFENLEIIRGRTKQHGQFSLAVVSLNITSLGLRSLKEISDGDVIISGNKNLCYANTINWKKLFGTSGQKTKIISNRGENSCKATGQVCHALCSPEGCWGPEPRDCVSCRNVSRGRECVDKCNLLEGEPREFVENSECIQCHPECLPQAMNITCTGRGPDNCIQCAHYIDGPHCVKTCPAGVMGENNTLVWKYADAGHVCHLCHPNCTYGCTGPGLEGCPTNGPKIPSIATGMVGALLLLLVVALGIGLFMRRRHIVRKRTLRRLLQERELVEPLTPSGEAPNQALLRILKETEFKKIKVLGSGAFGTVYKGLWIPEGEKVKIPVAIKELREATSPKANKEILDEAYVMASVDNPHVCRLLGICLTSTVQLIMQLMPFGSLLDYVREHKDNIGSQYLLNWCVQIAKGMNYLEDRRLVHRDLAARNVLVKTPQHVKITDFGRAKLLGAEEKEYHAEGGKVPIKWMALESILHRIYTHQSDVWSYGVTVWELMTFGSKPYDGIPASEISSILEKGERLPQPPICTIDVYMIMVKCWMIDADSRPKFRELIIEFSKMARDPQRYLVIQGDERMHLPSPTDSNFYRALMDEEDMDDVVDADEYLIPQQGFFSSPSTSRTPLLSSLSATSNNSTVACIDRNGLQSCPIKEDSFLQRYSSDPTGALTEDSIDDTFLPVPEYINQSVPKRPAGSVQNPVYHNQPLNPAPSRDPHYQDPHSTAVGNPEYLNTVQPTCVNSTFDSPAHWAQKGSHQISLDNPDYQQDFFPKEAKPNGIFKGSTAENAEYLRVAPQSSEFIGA
Summary of the method: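 Caliper mobility shift read-out: product and substrate peptides separated by electrophoresis and quantified. Reactions at 25° C. taken to 10–20% peptide phosphorylation, quenched with 35 mM EDTA. Apparent IC50 from percent activity vs log [compound].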

[2] = test system: phosphorylation of EGFR (Tyr1068) in NCI-H1975 cell line that harbors the EGFR L858R T790M mutations; assay: NCI-H1975 pEGFR AlphaLISA assay; assay type: cell-based; conditions: 4-5 hours incubation, read-out: Ext pEGFR H1975
Summary of the method: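 Phospho-EGFR Tyr1068 AlphaLISA readout: lysates taken from compound-treated H1975 cells (L858R T790M EGFR) after a 4-5 h exposure at 37 °C. Cells had adhered overnight beforehand. IC50 derived by plotting % pEGFR inhibition against log compound concentration.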

[3] = Homo sapiens, NCI-H1975, inhibition of phosphorylation of mutant EGFR in NCI-H1975 cells
[4] = inhibition of phosphorylation of mutant EGFR in NCI-H1975 cells

Compound	IC50 [1] [µM]	IC50 [2, 3] [µM]	IC50 [2, 4] [µM]
CC(C)c1ccc(N2CC(CS(=O)(=O)C3CNC3)C2)c2cnc(Nc3ccnc(N4CC[C@@H](O)[C@@](C)(F)C4)n3)cc12 (single isomer, unassigned) [Compound 223]	0.0201 to 0.03	0.0301 to 0.05	
CO[C@@H]1CCN(c2nccc(Nc3cc4c(C(C)C)ccc(N5CC(CS(C)(=O)=O)C5)c4cn3)n2)C[C@@H]1F [Compound 64, N-(2-((3S,4R)-3-fluoro-4-methoxypiperidin-1-yl)pyrimidin-4-yl)-5-isopropyl-8-(3-(methylsulfonylmethyl)azetidin-1-yl)isoquinolin-3-amine]	≤ 0.015	≤ 0.01	
CO[C@@H]1[C@H](O)CN(c2nccc(Nc3cc4c(C(C)C)ccc(N5CC(CS(C)(=O)=O)C5)c4cn3)n2)C[C@@H]1F (single isomer, unassigned) [Compound 148, (3R,4R,5S)-5-fluoro-1-[4-({8-[3-(methanesulfonylmethyl)azetidin-1-yl]-5-(propan-2-yl)isoquinolin-3-yl}amino)pyrimidin-2-yl]-4-methoxypiperidin-3-ol or (3S,4S,5R)-5-fluoro-1-[4-({8-[3-(methanesulfonylmethyl)azetidin-1-yl]-5-(propan-2-yl)isoquinolin-3-yl}amino)pyrimidin-2-yl]-4-methoxypiperidin-3-ol]	≤ 0.015	≤ 0.01	
CO[C@@H]1CCN(c2nccc(Nc3cc4c(C(C)C)ncc(N5C[C@H](CS(C)(=O)=O)[C@H]5C)c4cn3)n2)C[C@@H]1F [Compound 139, N-{2-[(3S,4R)-3-fluoro-4-methoxypiperidin-1-yl]pyrimidin-4-yl}-8-[(2R,3S)-3-(methanesulfonylmethyl)-2-methylazetidin-1-yl]-5-(propan-2-yl)-2,6-naphthyridin-3-amine]	≤ 0.015	≤ 0.01	

Continued, values first:

IC50 [1] [µM]	IC50 [2, 3] [µM]	IC50 [2, 4] [µM]	Compound
0.0151 to 0.02	≤ 0.01		CC(C)c1ccc(N2C[C@H](CS(C)(=O)=O)[C@H]2C)c2cnc(Nc3ccnc(N4CC[C@@H](OCCO)C(F)(F)C4)n3)cc12 (single isomer, unassigned) [Compound 251]
≤ 0.015		≤ 0.01	CN[C@H]1CCN(c2nccc(Nc3cc4c(C(C)C)ccc(N5C[C@H](CS(C)(=O)=O)[C@H]5C)c4cn3)n2)CC1(F)F (single isomer, unassigned) [Compound 310, N-{2-[(4R)-3,3-difluoro-4-(methylamino)piperidin-1-yl]pyrimidin-4-yl}-8-[(2R,3S)-3-(methanesulfonylmethyl)-2-methylazetidin-1-yl]-5-(propan-2-yl)isoquinolin-3-amine or N-{2-[(4S)-3,3-difluoro-4(methylamino)piperidin-1-yl]pyrimidin-4-yl}-8-[(2R,3S)-3-(methanesulfonylmethyl)-2-methylazetidin-1-yl]-5-(propan-2-yl)isoquinolin-3-amine]
0.0151 to 0.02		≤ 0.01	CCS(=O)(=O)C[C@H]1CN(c2ccc(C(C)C)c3cc(Nc4ccnc(N5CC[C@@H](OCCO)C(F)(F)C5)n4)ncc23)[C@@H]1C (single isomer, unassigned) [Compound 303, 2-{[(4S)-1-[4-({8-[(2R,3S)-3-[(ethanesulfonyl)methyl]-2-methylazetidin-1-yl]-5-(propan-2-yl)isoquinolin-3-yl}amino)pyrimidin-2-yl]-3,3-difluoropiperidin-4-yl]oxy}ethan-1-ol or 2-{[(4R)-1-[4-({8-[(2R,3S)-3-[(ethanesulfonyl)methyl]-2-methylazetidin-1-yl]-5-(propan-2-yl)isoquinolin-3-yl}amino)pyrimidin-2-yl]-3,3-difluoropiperidin-4-yl]oxy}ethan-1-ol]
